Results: patent US11510886B2, “Metformin amino acid compounds and methods of using the same” (Laboratorios Silancs S.A. DE C.V., priority 2016, dated 2022)
Entries after “also recorded” stand apart in the source; their conditions may differ. Where a name gives a salt, the structure may show the parent alone. Read-outs that look alike come from different tables or passages of the source.

What was measured:
(NZB×NZW) F1 mice = assay: Proteinuria and renal lupus in (NZB×NZW) F1 mice; format: in vivo; conditions: for number of mice with a pathological grade above 3: kidneys at week 35 (FIG. 84)
blood glucose level = assay: Effect of metformin compounds on the glucokinetic profile after oral glucose overload; format: in vivo, Rat; conditions: rat, 750 mg/kg referred to metformin base, mean ± SD; for Blood glucose level, 0.25 h post-glucose overload / Blood glucose level, 1 h post-glucose overload / Blood glucose level, 4 h post-glucose overload / Blood glucose level, pre-glucose overload: *p<0.05 vs vehicle; for Blood glucose level, 3 h post-glucose overload: *p<0.05, **p<0.01 vs vehicle
[1] = STZ-diabetic male rats, mean ± SD; for Absolute body weight, Day −1 / Absolute body weight, Day −2 (distribution of groups): before first TI/RI administration
[2] = target: T1, GPBP, LKB1/STRADα/MO25, AMPK, AS160 (Homo sapiens, UniProt Q9Y5P4); assay: In vitro phosphorylation of GPBP with LKB1 complex, AMPK and AS160
T1 sequence (Q9Y5P4 1-624): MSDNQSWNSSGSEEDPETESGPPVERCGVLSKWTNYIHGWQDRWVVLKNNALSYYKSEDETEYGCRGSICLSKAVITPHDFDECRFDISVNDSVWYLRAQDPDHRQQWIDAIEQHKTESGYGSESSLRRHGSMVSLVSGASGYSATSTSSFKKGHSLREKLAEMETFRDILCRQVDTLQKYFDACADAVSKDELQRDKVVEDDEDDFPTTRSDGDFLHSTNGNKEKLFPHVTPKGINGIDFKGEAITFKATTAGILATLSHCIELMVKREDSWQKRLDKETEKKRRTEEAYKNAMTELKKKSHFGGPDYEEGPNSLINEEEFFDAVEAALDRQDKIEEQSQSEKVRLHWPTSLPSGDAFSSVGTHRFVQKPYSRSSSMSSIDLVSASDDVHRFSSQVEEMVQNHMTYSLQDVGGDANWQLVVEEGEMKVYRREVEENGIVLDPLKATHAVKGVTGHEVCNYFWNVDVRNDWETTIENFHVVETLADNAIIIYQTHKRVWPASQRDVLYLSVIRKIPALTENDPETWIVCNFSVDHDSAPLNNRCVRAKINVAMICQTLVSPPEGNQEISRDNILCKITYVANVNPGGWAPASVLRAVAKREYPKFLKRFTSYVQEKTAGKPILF

RAW264.7 macrophages = assay: IL-10 expression in RAW264.7 macrophages stimulated with LPS and IFN-γ; format: cell-based
Method: FIG. 92. […]. After several incubation times, cells were processed as shown in FIG. 79 for RT-qPCR analysis, and IL-10 relative quantification (RQ) was determined with a specific probe (Taqman®, Life Technologies) using HPRT-1 as a normalizer and non-stimulated cells as a reference point (time 0). In the Table in FIG. 92, the area under the curve (AUC) is indicated for each of the series.
FIG. 93. The IL-10 expression depends on GPBP-1. […]. […] The silencing efficacy was tested by Western blot with RAW264.7 (WT) and pSi-GPBP-1 cell lysates (50 μg), using specific antibodies (right).
FIG. 94. The IL-10 expression depends on cGPBP-1. In A, an assay scheme is shown; […]. […] In B, the relative expression of IL-10 in RAW264.7 macrophages cultured with conditioned media, obtained as specified in A, is shown. The analysis was carried out by quantitative RT and PCR, using HPRT-1 as a normalizer. In this case, the reference point were cells treated with a conditioned medium in absence of N26 (RQ=1 value), and the increased IL-10 expression was verified; the analysis included non-stimulated cells cultured in a fresh, non-conditioned medium (cells).

GPBP = target: T2, GPBP (Homo sapiens, UniProt Q9Y5P4); assay: In vitro (auto)phosphorylation of recombinant FLAG-GPBP; format: biochemical; design: made in house; host or cells: Pichia pastoris; conditions: for GPBP in vitro kinase activity (autophosphorylation): β-glycerophosphate phosphorylation solution pH 7.0, [γ-32P]ATP, autoradiography (FIG. 64)
T2 sequence (Q9Y5P4 1-624): T1 sequence (Q9Y5P4 1-624)
Method: FIG. 64. […]. Recombinant FLAG-GPBP, in similar quantities, expressed in yeast Pichia pastoris (Invitrogen) and purified with anti-FLAG resin (Sigma), as described above (Raya et al. J Biol Chem. 1999; […]. The reaction cocktails (25 μl) were incubated at 30° C. and stirred (350 rpm) for 15 minutes, then analyzed using PAGE standard procedures in the presence of SDS and β-mercaptoethanol, and electrotransferred to PVDF membrane (Immobilon P, Millipore). Membranes were then exposed to autoradiography (32P) and subsequently sent for incubation with anti-FLAG antibodies, peroxidase-labelled; ECL Prime (GE Healthcare) (WB anti-FLAG) was used for developing.
[…]. Then, electrophoresis in 10% polyacrylamide gel and electroblotting to PVDF membrane were applied. Autoradiography was applied to membranes by exposure to photographic films (Amersham Hyperfilm MP, GE Healthcare Lifesciences). After autoradiography, the membranes were blocked with 5% skimmed milk in TBST and incubated with anti-FLAG (Sigma) monoclonal antibodies and secondary antibodies against mouse IgG conjugated to peroxidase (Promega).

C2C12 myotubes = assay: Glucose in C2C12 myotubes cultured with M1 macrophage conditioned medium; format: cell-based, Mice; conditions: macrophages treated with 10 mM, glucose adjusted to 100 mg/100 mL (FIG. 95)
Method: FIG. 95. C2C12 myotubes, treated with a conditioned RAW264.7 M1 macrophages medium (stimulated with LPS and IFN-γ [M1]), accumulate glucose in the culture medium: SLN compounds reduce the “hyperglycemic” effect of the M1 medium. […]; then, the culture media were collected, and their glucose concentration adjusted to 100 mg/100 mL and used to culture C2C12 myoblasts that had been previously differentiated to myotubes in DMEM supplemented with 2% horse serum for 5 days. The glucose concentration in myotubes was determined at several times with a Glucocard (Arkray). C2C12 myotubes, cultured with conditioned media of non-stimulated (cells) macrophages, or similarly stimulated but not treated with a SLN (M1), were used as controls. The initial glucose levels (time 0) are used as a reference (100%) in each of the series.
[…]. Then the culture media were collected, their glucose concentration adjusted to 100 mg/100 mL and used to culture C2C12 myoblasts that had been previously differentiated to myotubes in DMEM supplemented with 2% horse serum for 5 days. The glucose concentration of the myotube cultures was determined at different times with Glucocard (Arkray). The controls used were the C2C12 cultured with media conditioned with no stimulated macrophages (cells) or with M1 conditioned media. The initial glucose levels (time 0) were used as a reference (100%) in each series.

| Molecule | number of mice with a pathological grade above 3 ((NZB×NZW) F1 mice) | Blood glucose level, 0.25 h post-glucose overload (blood glucose level) [mg/dL] | Blood glucose level, 0.5 h post-glucose overload (blood glucose level) [mg/dL] | Blood glucose level, 1 h post-glucose overload (blood glucose level) [mg/dL] | Blood glucose level, 2 h post-glucose overload (blood glucose level) [mg/dL] | Blood glucose level, 3 h post-glucose overload (blood glucose level) [mg/dL] | Blood glucose level, 4 h post-glucose overload (blood glucose level) [mg/dL] | Blood glucose level, 6 h post-glucose overload (blood glucose level) [mg/dL] | Blood glucose level, pre-glucose overload (blood glucose level) [mg/dL] | Absolute body weight, Day −1 [1] [g] | Absolute body weight, Day −2 (distribution of groups) [1] [g] | other results |
| --- | --- | --- | --- | --- | --- | --- | --- | --- | --- | --- | --- | --- |
| metformin lysinate | 3 | 108.33 ± 14.57 | 101.00 ± 15.13 | 106.00 ± 15.72 | 94.00 ± 19.47 | 84.67 ± 7.09 | 89.00 ± 5.29 | 98.33 ± 9.07 | 93.33 ± 22.48 | 212.73 ± 0.23 | 217.67 ± 9.71 | proteinuria ((NZB×NZW) F1 mice; 100 mg/kg/day, IP 5 days from week 16, then oral in drinking water, vs control, listed as SLN10): most effective; also recorded: significantly less proteinuria; also recorded: reduced proteinuria; autoantibody (anti-ssDNA IgG) titers ((NZB×NZW) F1 mice; FIG. 85, Control vs. SLN10 p=0.0238): reduces antibodies titers; also recorded: reduced titers by half; circulating GPBP levels (cGPBP) ((NZB×NZW) F1 mice; plasma, before steady increase of proteinuria (FIG. 86)): showed no increase; GPBP autophosphorylation in presence of LKB1 mix, AMPK and AS160 ([2]; FIG. 73, listed as SLN10): inhibit it increasingly; also recorded: inhibited it progressively; incorporation of phosphate by LKB1/STRADα ([2]; GPBP present in the reaction mixture): inhibited the incorporation of phosphate by LKB1/STRADα efficiently; IL-10 expression (RAW264.7 macrophages): increase IL-10 expression; also recorded: markedly superior; dependence of IL-10 expression on GPBP expression (RAW264.7 macrophages): depended largely on the GPBP expression; GPBP inhibition depending on reaction medium (GPBP; Na buffer: 25 mM Tris-HCl pH 7.4, 150 mM NaCl (FIG. 66)): inhibits GPBP in Na buffer; active ingredient concentration corresponding to 1 mM (GPBP; in vitro assays, pH 7.0, applicant's estimate): 8.6 µM; GPBP in vitro kinase activity (autophosphorylation) (GPBP; listed as SLN10): inhibits GPBP in vitro kinase activity; also recorded: kinase activity inhibitors; glucose concentration in myotubes kept in M1 macrophage-conditioned medium (C2C12 myotubes): reduced the glucose concentration to hypoglycemic levels; glucose concentration in myotubes kept in M1 macrophage-conditioned medium (C2C12 myotubes; listed as SLN10): took them to “hypoglycemic” levels |
| CN(C)C(=N)N=C(N)N [Metformin hydrochloride, metformin hydrochloride, reference compound] | 7 | 93.75 ± 15.78 | 89.50 ± 9.98 | 88.25 ± 10.63 | 74.00 ± 10.58 | 85.75 ± 7.37 | 83.75 ± 7.23 | 89.00 ± 11.80 | 77.00 ± 8.08 | 210.43 ± 11.90 | 223.73 ± 10.88 | deaths ((NZB×NZW) F1 mice; from week 33 onwards): began to die; Absolute body weight, Day −3 (before STZ administration) ([1]; baseline before STZ and before first TI/RI administration): 231.30 ± 11.83 g; GPBP autophosphorylation in presence of LKB1 mix, AMPK and AS160 [2]: activates GPBP phosphorylation; also recorded: stimulated GPBP autophosphorylation; IL-10 expression (RAW264.7 macrophages; 10 mM, LPS and IFN-γ (FIG. 92)): increase IL-10 expression; dependence of IL-10 expression on GPBP expression (RAW264.7 macrophages; pSi-GPBP-1 macrophages (FIG. 93)): virtually GPBP independent; GPBP in vitro kinase activity (autophosphorylation) (GPBP): moderate activator; glucose concentration in myotubes kept in M1 macrophage-conditioned medium (C2C12 myotubes; listed as SLN1, hydrochloride): slowed progression towards “hyperglycemia”; glucose concentration in myotubes kept in M1 macrophage-conditioned medium (C2C12 myotubes; listed as metformin HCl, hydrochloride): slowed down the progression towards hyperglycemia |
